The results in this text go back to patent publication US20100317647A1 (priority 2009, published 2010).

The structures appear in SMILES notation. pIC50: −log10 of the molar value.

For orientation: pIC50 means the negative decadic logarithm of the IC50, by convention in mol/L. High values mean a small IC50, low ones a large IC50.

In this test the target is human Cat S (Homo sapiens, UniProt P25774). The experiment in a line: Cathepsin enzyme inhibition assay (fluorogenic peptide substrate cleavage). The test is classed as biochemical. Conditions: human Cat S 1 nM; substrate Z-Val-Val-Arg-AMC 20 μM; pH 6.5; fluorescence over 20 minutes. The procedure, abridged: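 IC50 values derived from fluorescence increase (ex 360 nm, em 465 nm) monitored for 20 minutes after substrate addition. Enzyme held at 1 nM with 20 μM Z-Val-Val-Arg-AMC, in pH 6.5 potassium phosphate buffer containing DTT, EDTA and Triton X-100.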
Sequence of human Cat S (P25774 115-331): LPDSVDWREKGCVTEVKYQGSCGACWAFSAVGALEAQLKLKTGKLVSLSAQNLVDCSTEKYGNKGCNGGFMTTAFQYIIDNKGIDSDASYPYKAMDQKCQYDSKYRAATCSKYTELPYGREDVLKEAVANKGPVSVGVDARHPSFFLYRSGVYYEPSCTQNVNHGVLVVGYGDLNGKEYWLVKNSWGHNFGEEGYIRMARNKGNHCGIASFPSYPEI
`Cc1ccc(C(C)(C)O[C@@H]2C[C@H](S(=O)(=O)c3ccccc3Cl)C[C@H]2C(=O)NC2(C#N)CC2)cc1` (racemic) [Example 245, (1R,2R,4R) and (1S,2S,4S)-4-(2-chlorophenylsulfonyl)-N-(1-cyanocyclopropyl)-2-(2-p-tolylpropan-2-yloxy)cyclopentanecarboxamide] gave a pIC50 of 7.94.
On to `CO[C@@H]1C[C@H](S(=O)(=O)c2ccc(Br)cc2C(F)(F)F)C[C@H]1C(=O)NC1(C#N)CC1` (racemic) [Example 58, (1R,2R,4R) and (1S,2S,4S)-4-(4-Bromo-2-trifluoromethyl-benzenesulfonyl)-2-methoxy-cyclopentanecarboxylic acid (1-cyano-cyclopropyl)-amide], for which the pIC50 is 8.21.
In turn, `N#CC1(NC(=O)[C@@H]2C[C@@H](S(=O)(=O)c3ccccc3Cl)C[C@H]2OCc2cc(F)c(Cl)cc2Cl)CC1` (racemic) [Example 180, (1R,2R,4R) and (1S,2S,4S)-4-(2-Chlorophenylsulfonyl)-N-(1-cyanocyclopropyl)-2-(2,4-dichloro-5-fluorobenzyloxy)cyclopentanecarboxamide] had a pIC50 of 6.80. Compared with the last molecule, the pIC50 is 1.41 log units lower.
As for `Cc1ccc(CO[C@@H]2C[C@H](S(=O)(=O)c3ccccc3Cl)C[C@H]2C(=O)NC2(C#N)CC2)cc1` (racemic) [Example 150, (1R,2R,4R) and (1S,2S,4S)-4-(2-Chlorophenylsulfonyl)-N-(1-cyanocyclopropyl)-2-(4-methylbenzyloxy)cyclopentanecarboxamide], the pIC50 is 8.38.
`N#CCNC(=O)[C@H]1CC[C@H](S(=O)(=O)c2ccc(F)cc2Cl)C1` (racemic) [Example 79, (1S,3S) and (1R,3R)-3-(2-Chloro-4-fluoro-benzenesulfonyl)-cyclopentanecarboxylic acid cyanomethyl-amide]: the negative logarithm of the IC50 (pIC50) was 6.17.
Under `COc1ccc(-c2ccc(S(=O)(=O)[C@H]3C[C@@H](OC)[C@H](C(=O)NC4(C#N)CC4)C3)c(C(F)(F)F)c2)cn1` (racemic) [Example 78, (1R,2R,4R) and (1S,2S,4S)-2-Methoxy-4-[4-(6-methoxy-pyridin-3-yl)-2-trifluoromethyl-benzenesulfonyl]-cyclopentanecarboxylic acid (1-cyano-cyclopropyl)-amide] stands 9.52; under `Cn1nccc1-c1ccc(S(=O)(=O)[C@@H]2C[C@@H](C(=O)NC3(C#N)CC3)[C@H](C(=O)N3CC(F)(F)C3)C2)c(C(F)(F)F)c1` [Example 124, (1R,2R,4R)-2-(3,3-Difluoro-azetidine-1-carbonyl)-4-[4-(2-methyl-2H-pyrazol-3-yl)-2-trifluoromethyl-benzenesulfonyl]-cyclopentanecarboxylic acid (1-cyano-cyclopropyl)-amide], 9.70; under `Cc1cc(Cl)ccc1S(=O)(=O)[C@@H]1C[C@@H](C(=O)NCC#N)[C@H](C(=O)N2C[C@@H](C)O[C@@H](C)C2)C1` [Example 32, (1R,2R,4R)-4-(4-Chloro-2-methyl-benzenesulfonyl)-2-((2S,6R)-2,6-dimethyl-morpholine-4-carbonyl)-cyclopentanecarboxylic acid cyanomethyl-amide], 9.40.
For `COC[C@@H]1C[C@H](S(=O)(=O)c2ccccc2Cl)C[C@H]1C(=O)NCC#N` (single isomer, unassigned) [Example 103], the pIC50 is 7.68.
`CO[C@@H]1C[C@H](S(=O)(=O)c2ccc(-c3cnn(C)c3)cc2C(F)(F)F)C[C@H]1C(=O)NC1(C#N)CC1` (racemic) [Example 66, (1R,2R,4R) and (1S,2S,4S)-2-Methoxy-4-[4-(1-methyl-1H-pyrazol-4-yl)-2-trifluoromethyl-benzenesulfonyl]-cyclopentanecarboxylic acid (1-cyano-cyclopropyl)-amide] showed a pIC50 of 9.15.
`Cc1cc(Cl)ccc1S(=O)(=O)[C@@H]1C[C@@H](C(=O)NC(C#N)c2ccccc2)[C@H](C(=O)N2CCOCC2)C1` (stereo partly drawn) [Example 31, (1R,2R,4R)-4-(4-Chloro-2-methyl-benzenesulfonyl)-2-(morpholine-4-carbonyl)-cyclopentanecarboxylic acid (cyano-phenyl-methyl)-amide] had a negative logarithm of the IC50 (pIC50) of 9.70.
In turn, `CO[C@@H]1C[C@H](S(=O)(=O)c2ccc(-c3cc(C)nn3C)cc2C(F)(F)F)C[C@H]1C(=O)NC1(C#N)CC1` (racemic) [Example 67, (1R,2R,4R) and (1S,2S,4S)-4-[4-(2,5-Dimethyl-2H-pyrazol-3-yl)-2-trifluoromethyl-benzenesulfonyl]-2-methoxy-cyclopentanecarboxylic acid (1-cyano-cyclopropyl)-amide] had a pIC50 of 9.22.
On to `N#CC1(NC(=O)[C@@H]2C[C@@H](S(=O)(=O)c3ccccc3Cl)C[C@H]2OCc2ccc(Br)cc2)CC1` (racemic) [Example 154, (1R,2R,4R) and (1S,2S,4S)-2-(4-Bromo-benzyloxy)-4-(2-chloro-benzenesulfonyl)-cyclopentanecarboxylic acid (1-cyano-cyclopropyl)-amide], for which the negative logarithm of the IC50 (pIC50) is 8.12. This pIC50 lies 1.10 log units lower than the previous one.
Under `N#CCNC(=O)[C@@H]1C[C@@H](S(=O)(=O)c2ccccc2Cl)C[C@H]1O` (racemic) [Example 49, (1R,2R,4R) and (1S,2S,4S)-4-(2-Chloro-benzenesulfonyl)-2-hydroxy-cyclopentanecarboxylic acid cyanomethyl-amide] stands 7.08; under `CC(C)N1CCN(c2ccc(S(=O)(=O)[C@H]3C[C@@H](OC4CCCC4)[C@H](C(=O)NC4(C#N)CC4)C3)c(C(F)(F)F)c2)CC1` (racemic) [Example 229, (1R,2R,4R) and (1S,2S,4S)-2-Cyclopentyloxy-4-[4-(4-isopropyl-piperazin-1-yl)-2-trifluoromethyl-benzenesulfonyl]-cyclopentanecarboxylic acid (1-cyano-cyclopropyl)-amide], 11.15.
Under `N#CC1(NC(=O)[C@@H]2C[C@@H](S(=O)(=O)c3ccccc3)C[C@H]2C(=O)N2CCCCC2)CC1` [Example 12, (1R,2R,4R)-4-Benzenesulfonyl-2-(piperidine-1-carbonyl)-cyclopentanecarboxylic acid (1-cyano-cyclopropyl)-amide] stands 9.10; under `CO[C@@H]1C[C@H](S(=O)(=O)c2ccc(N3CCC(F)(F)CC3)cc2C(F)(F)F)C[C@H]1C(=O)NC1(C#N)CC1` (racemic) [Example 178, (1R,2R,4R) and (1S,2S,4S)-4-[4-(4,4-Difluoro-piperidin-1-yl)-2-trifluoromethyl-benzenesulfonyl]-2-methoxy-cyclopentanecarboxylic acid (1-cyano-cyclopropyl)-amide], 9.05; under `Cc1cc(Cl)ccc1S(=O)(=O)[C@@H]1C[C@@H](C(=O)NCC#N)[C@H](C(=O)N2CCN(C)CC2)C1` [Example 33, (1R,2R,4R)-4-(4-Chloro-2-methyl-benzenesulfonyl)-2-(4-methyl-piperazine-1-carbonyl)-cyclopentanecarboxylic acid cyanomethyl-amide], 8.80.
`CNC(=O)Cn1cc(-c2ccc(S(=O)(=O)[C@H]3C[C@@H](OC)[C@H](C(=O)NC4(C#N)CC4)C3)c(C(F)(F)F)c2)cn1` (racemic) [Example 216, (1R,2R,4R) and (1S,2S,4S)-2-Methoxy-4-[4-(1-methylcarbamoylmethyl-1H-pyrazol-4-yl)-2-trifluoromethyl-benzenesulfonyl]-cyclopentanecarboxylic acid (1-cyano-cyclopropyl)-amide] showed a pIC50 of 8.80.
`N#CC1(NC(=O)[C@@H]2C[C@@H](S(=O)(=O)c3ccccc3C(F)(F)F)C[C@H]2OC2CCCC2)CC1` (racemic) [Example 221, (1R,2R,4R) and (1S,2S,4S)-2-Cyclopentyloxy-4-(2-trifluoromethyl-benzenesulfonyl)-cyclopentanecarboxylic acid (1-cyano-cyclopropyl)-amide] showed a pIC50 of 8.08.
Regarding `COc1ccc(COC[C@@H]2C[C@H](S(=O)(=O)c3ccc(F)cc3Cl)C[C@H]2C(=O)NC2(C#N)CC2)cc1` [Example 153, (1R,2R,4S)-4-(2-Chloro-4-fluoro-benzenesulfonyl)-2-(4-methoxy-benzyloxymethyl)-cyclopentanecarboxylic acid (1-cyano-cyclopropyl)-amide], the negative logarithm of the IC50 (pIC50) was 7.59.
On to `CO[C@@H]1C[C@H](S(=O)(=O)c2ccc(-c3cnccn3)cc2C(F)(F)F)C[C@H]1C(=O)NC1(C#N)CC1` (racemic) [Example 111, (1R,2R,4R) and (1S,2S,4S)-2-Methoxy-4-(4-pyrazin-2-yl-2-trifluoromethyl-benzenesulfonyl)-cyclopentanecarboxylic acid (1-cyano-cyclopropyl)-amide], for which the negative logarithm of the IC50 (pIC50) is 9.40. Against the preceding molecule, the pIC50 is 1.81 log units higher.
`N#CCNC(=O)[C@@H]1C[C@@H](S(=O)(=O)c2cccc3ccccc23)C[C@H]1C(=O)N1CCOCC1` [Example 36, (1R,2R,4R)-2-(Morpholine-4-carbonyl)-4-(naphthalene-1-sulfonyl)-cyclopentanecarboxylic acid cyanomethyl-amide] showed a negative-log IC50 (pIC50) of 9.40.
Regarding `N#CC1(NC(=O)[C@@H]2C[C@@H](S(=O)(=O)c3ccccc3Cl)C[C@H]2OCc2ccc(Cl)cc2C(F)(F)F)CC1` (racemic) [Example 151, (1R,2R,4R) and (1S,2S,4S)-2-(4-Chloro-2-(trifluoromethyl)benzyloxy)-4-(2-chlorophenylsulfonyl)-N-(1-cyanocyclopropyl)cyclopentanecarboxamide], the pIC50 is 8.52.
`N#CC1(NC(=O)[C@@H]2C[C@@H](S(=O)(=O)c3ccccc3)C[C@H]2C(=O)O)CC1` [Example 10, (1R,2R,4R)-4-Benzenesulfonyl-2-(1-cyano-cyclopropylcarbamoyl)-cyclopentanecarboxylic acid] showed a negative-log IC50 (pIC50) of 6.37.
